Data as given in patent US7834248B2, “Plant seed comprising vernolic acid” (Commonwealth Scientific and Industrial Research Organisation, priority 1997, dated 2010).

Legend:
[1] = test system: C. alpina oleate Δ12-desaturase; assay: Microsomal oleate Δ12-desaturase assay, effect of treatments; format: biochemical, Crepis alpina; details: for Enzyme Activity (% of control), C. alpina oleate Δ12-desaturase: microsomal membranes, control = minus NADPH plus NADH
Method: (§1) Preparations of membranes from Crepis alpina and Crepis palaestina were obtained as follows. Crepis alpina and Crepis palaestina plants were grown in green houses and seeds were harvested at the mid-stage of development (17-20 days after flowering). Cotyledons were squeezed out from their seed coats and homogenized with mortar and pestle in 0.1M phosphate buffer, pH 7.2 containing 0.33M sucrose, 4 mM NADH, 2 mM CoASH, 1 mg of bovine serum albumin/ml and 4,000 units of catalase/ml. The homogenate was centrifuged for 10 min at 18,000×g and the resulting supernatant centrifuged for 60 min at 150,000×g to obtain a microsome pellet.
(§2) […]. When NADPH was used as coreductant, the membranes were resuspended in homogenization buffer comprising NADPH in place of NADH.
(§3) Biochemical characterization of the microsomal linoleate Δ12-epoxygenase derived from Euphorbia lagascae and Crepis palaestina was carried out and data obtained were compared to the biochemical characteristics of oleate Δ12-desaturase and linoleate Δ12-acetylenase enzymes derived from microsomal preparations of Crepis alpina (Table 4).

[2] = target: T1, C. alpina linoleate Δ12-acetylenase (Crepis alpina, UniProt O81931); assay: Microsomal linoleate Δ12-acetylenase assay, effect of treatments; format: biochemical
T1 construct: from tissue; host or cells: microsomes from cotyledons of developing Crepis alpina seeds
Method: as §1, §2, §3

[3] = test system: C. palaestina linoleate Δ12-epoxygenase; assay: Microsomal linoleate Δ12-epoxygenase assay, effect of treatments; format: biochemical, Crepis palaestina; details: microsomal membranes; control = minus NADPH plus NADH
Method: as §1, §2, §3

[4] = test system: E. lagascae linoleate Δ12-epoxygenase; assay: Membrane linoleate Δ12-epoxygenase assay, effect of treatments; format: biochemical, Euphorbia lagascae; details: for Enzyme Activity (% of control), E. lagascae linoleate Δ12-epoxygenase: membranes, control = minus NADH plus NADPH
Method: Preparations of membranes from Euphorbia lagascae and assays of their epoxygenase activities were performed as described by Bafor et al. (1993) with incubations containing NADPH, unless otherwise indicated in Table 4. Lipid extraction, separation and methylation as well as GLC and radio-GLC separations were performed essentially as described by Kohn et al. (1994) and Bafor et al. (1993).
as §3

[5] = test system: developing linseed cotyledons; assay: Incorporation of 14C-labelled oleic acid and vernolic acid into the lipids of developing linseed cotyledons
Method: 0.1 M phosphate buffer pH 7.2 for 90 or 270 min before extraction. An aliquot of the lipids in the chloroform phase was methylated and separated on silica gel TLC plates in n-hexane/diethylether/acetic acid (85:15:1). The rest of the lipids in the chloroform phase of each sample were applied on two separate silica gel TLC plates and the plates were developed in chloroform/methanol/acetic acid/water (85:15:10:3.5 by vol) for polar lipids separation and in n-hexane/diethylether/acetic acid (60:40:1.5) for neutral lipid separation. Lipid areas with migration corresponding to authentic standards were removed and radioactivity in each lipid were quantified by liquid scintillation counting.

T1 sequence (O81931 whole entry, stated change not applied): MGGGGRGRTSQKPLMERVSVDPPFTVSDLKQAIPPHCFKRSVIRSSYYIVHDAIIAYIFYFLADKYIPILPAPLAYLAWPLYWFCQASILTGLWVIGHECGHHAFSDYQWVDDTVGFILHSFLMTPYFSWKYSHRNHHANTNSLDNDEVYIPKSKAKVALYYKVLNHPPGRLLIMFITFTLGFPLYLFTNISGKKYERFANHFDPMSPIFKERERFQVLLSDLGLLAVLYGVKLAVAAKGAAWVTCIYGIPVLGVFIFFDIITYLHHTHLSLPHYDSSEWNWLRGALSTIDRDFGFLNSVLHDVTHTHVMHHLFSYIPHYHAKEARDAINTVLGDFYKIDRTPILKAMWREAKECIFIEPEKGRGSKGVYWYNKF

Compound: NC(=O)C1=CN([C@@H]2O[C@H](COP(=O)(O)OP(=O)(O)OC[C@H]3O[C@@H](n4cnc5c(N)ncnc54)[C@H](OP(=O)(O)O)[C@@H]3O)[C@@H](O)[C@H]2O)C=CC1 [NADPH]
- Enzyme Activity (% of control), C. alpina oleate Δ12-desaturase [1]: 95 % of control
- Enzyme Activity (% of control), C. alpina linoleate Δ12-acetylenase ([2]; microsomal membranes, control = minus NADPH plus NADH): 73 % of control
- Enzyme Activity (% of control), C. palaestina linoleate Δ12-epoxygenase [3]: 94 % of control

Compound: NC(=O)C1=CN([C@@H]2O[C@H](COP(=O)(O)OP(=O)(O)OC[C@H]3O[C@@H](n4cnc5c(N)ncnc54)[C@H](O)[C@@H]3O)[C@@H](O)[C@H]2O)C=CC1 [NADH]
- Enzyme Activity (% of control), E. lagascae linoleate Δ12-epoxygenase [4]: 11 % of control

Compound: CCCCCC1OC1CC=CCCCCCCCC(=O)O (centres unmarked) [[^14C]vernolic acid, 12,13-epoxy-9-octadecenoic acid]
- Metabolism of the epoxy group by linseed cotyledons (in words) [5]: do not metabolize the epoxy group of vernolic acid to any great extent

Compound: [C-]#[O+] [Carbon monoxide]
- Inhibition of linoleate Δ12-epoxygenase (in words) ([4]; Euphorbia lagascae membranes): is inhibited
- Enzyme Activity (% of control), E. lagascae linoleate Δ12-epoxygenase [4]: 3 % of control
- Inhibition of oleate Δ12-desaturase (in words) ([1]; Crepis alpina microsomes): not by carbon monoxide
- Enzyme Activity (% of control), C. alpina oleate Δ12-desaturase [1]: 85 % of control
- Inhibition of linoleate Δ12-acetylenase (in words) ([2]; Crepis alpina microsomes): not by carbon monoxide
- Enzyme Activity (% of control), C. palaestina linoleate Δ12-epoxygenase [3]: 88 % of control

Compound: CCCCCCCC/C=C\CCCCCCCC(=O)O [[^14C]oleic acid, oleic acid]
- Activity of chloroform phase residing in phosphatidylcholine ([5]; after 30 min): About 22%
- Activity of chloroform phase residing in triacylglycerols ([5]; after 30 min): About 5%
- Added radioactivity taken up by the cotyledons and recovered as lipophilic substances (chloroform phase) ([5]; after the 30 min pulse labeling, virtually unchanged during further 270 min): Somewhat more than half
- Activity of chloroform phase residing in phosphatidylcholine ([5]; at 300 min of incubation): about 11%
- Activity of chloroform phase residing in triacylglycerols ([5]; at 300 min of incubation): 18%
- Activity contained in diacylglycerols ([5]; remained rather constant over the incubation periods): ~19%
